IC50 and melting point data for 17 compounds are collected here from US8110585B2, “Bicyclic compound and pharmaceutical use thereof” (Takeda Pharmaceutical Company Limited, priority 2007, dated 2012).

The target in data set [1] is T1, human melatonin 1 receptors (human MT1 receptors) (Homo sapiens, UniProt P48039).
T1 construct: expressed in transfected cells; membrane fraction
The data set can be described thus: Melatonin receptor binding inhibitory test, 2-[125I] Iodomelatonin, MT1. The settings on record: membrane fraction of CHO-hMelR7 cells, 25° C. for 2.5 hr, read-out: binding inhibitory activity as IC50 value for MT1. How it is done: (§1) Melatonin Receptor Binding Inhibitory Test
(1) Preparation of CHO-hMelR7 Cells expressing Human Melatonin 1 Receptors
A cDNA fragment (SEQ ID NO: 1) encoding full-length of human melatonin 1 receptors (human MT1 receptors) was incorporated into expression vector pAKKO-111H (former name pAKKO1.11H; Biochim Biophys Acta. Vol. 1219(2), pp. 251-259, 1994) to give plasmid pAKKO-hMelR7 for animal cell expression. CHO/dhfr-cells (ATCC, #CRL-9096) were plated at a concentration of 0.3×10^6 cells/dish in a 6 cm culture dish (Becton Dickinson), and cultured under the conditions of 37° C., 5% CO2 for 48 hr. The cells were transfected with pAKKO-hMelR7 plasmid DNA (5 μg) using Cellphect Transfection Kit (Amersham, #27-9268-01). The transfected cells were cultured in Dulbecco's modified Eagle medium (DMEM) (Sigma, #D6046) containing 10% dialyzed FBS (Biowest, #S180D), 1× Non-Essential Amino Acid (Invitrogen, #11140-050) and 50 μg/mL Gentamycin (Invitrogen, #15750-060), and the cell line that stably expressed the plasmid gene was selected. By a receptor binding assay using 2-[^125I] Iodomelatonin, CHO-hMelR7 cell line showing specific binding of 2-[^125I] Iodomelatonin was selected from the obtained clones.
(§2) (3) Preparation of Cellular Membrane Fraction of CHO Cell (CHO-hMelR7 and CHO-hMT2) Stably Expressing Human MT1 and MT2 Receptors
(§3) CHO-hMelR7 and CHO-hMT2 cells were plated using Cellfactory (Nunc, #170009) under the conditions of 1×10^8 cells/2000 mL/flask. The cells were grown to confluent, and recovered by the following method. As the medium for CHO-hMelR7 and CHO-hMT2, MEM a containing 10% FBS and penicillin/streptomycin was used. […]
(§4) The medium was discarded, cells were washed twice with 200 mL of EDTA/PBS(−), 200 mL of EDTA/PBS(−) was further added, and the cells were stood still at room temperature for 20 min until they were released. The cells were recovered in four 50 mL tubes (Becton Dickinson, #352070), and centrifuged at 1,500 rpm for 10 min at 4° C. using a low speed cooling centrifuge (Hitachi, CF7D2). The supernatant was discarded, the pellets in the four tubes were suspended in 10 mL of PBS(−), and combined in one tube (Becton Dickinson, #352070). The mixture was further centrifuged at 1,500 rpm for 10 min at 4° C., and the obtained pellets were suspended in 20 mL of ice-cooled homogenizing buffer [10 mM NaHCO3, 5 mM EDTA, Protease inhibitor Complete (Roche), pH 7.4]. The cell suspension was homogenized 3 times using a polytron homogenizer at 20,000 rpm for 30 sec. The obtained homogenate was centrifuged (2,000 rpm, 10 min, 4° C.) using a low speed cooling centrifuge. The supernatant was recovered in an ultracentrifugation tube and ultracentrifuged (40,000 rpm, 60 min, 4° C.) using an ultracentrifuge (Beckman, L-90K). To the obtained pellets was added a suspending buffer [50 mM Tris-HCl, 1 mM EDTA, Protease inhibitor Complete (Roche), pH 7.4], and the pellets were suspended by pipetting. The protein concentration of this suspension was measured, diluted to 2 mg/mL to give cellular membrane fractions of CHO-hMelR7 and CHO-hMT2 cells. The membrane fractions were dispensed to 1.5 mL tubes (Eppendorf, #0030120.086) by 100 μL, preserved in a freezer (−80° C.) and used for a binding assay. Protein was quantified using BCA protein assay kit (Pierce) with BSA as the standard.
(§5) (4) Preparation of Membrane Fraction Suspension
(§6) Immediately before use, the membrane fractions of CHO-hMelR7 and CHO-hMT2 cells of the above-mentioned (3) were diluted 20-fold with assay buffer (50 mM Tris-HCl, pH 7.7).
(§7) (5) Preparation of 2-[^125I] Iodomelatonin Solution
(§8) 2-[^125I] Iodomelatonin (#NEX236, PerkinElmer) was diluted with the assay buffer to 400 pM for MT1 and 1 nM for MT2.
The assay buffer (80 μL) of the above-mentioned (4) was added to each well of a 96-well plate (type 3363, Corning). Then, a test compound (compound solution diluted with DMSO to 200-fold of the final measurement concentration) was added by 2 μL. […]

In data set [2] the target is T2, human melatonin 2 receptors (human MT2 receptors) (Homo sapiens, UniProt P49286).
T2 construct: expressed in transfected cells; membrane fraction
T2 sequence (P49286 1-362): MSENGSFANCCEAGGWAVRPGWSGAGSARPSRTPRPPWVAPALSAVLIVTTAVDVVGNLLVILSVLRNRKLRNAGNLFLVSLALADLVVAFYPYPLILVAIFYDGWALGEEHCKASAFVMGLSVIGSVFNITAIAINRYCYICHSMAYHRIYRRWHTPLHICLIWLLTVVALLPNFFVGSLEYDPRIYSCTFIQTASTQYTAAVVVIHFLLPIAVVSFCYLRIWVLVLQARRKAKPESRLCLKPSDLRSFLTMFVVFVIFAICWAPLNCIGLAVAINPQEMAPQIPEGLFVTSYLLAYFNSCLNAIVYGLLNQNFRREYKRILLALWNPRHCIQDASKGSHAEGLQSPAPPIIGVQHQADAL
The data set is described as follows: Melatonin receptor binding inhibitory test, 2-[125I] Iodomelatonin, MT2. The settings on record: membrane fraction of CHO-hMT2 cells, 25° C. for 2.5 hr, read-out: binding inhibitory activity as IC50 value for MT2. How it is done: as §1
(2) Preparation of CHO-hMT2 Cells Expressing Human Melatonin 2 Receptors
A cDNA fragment (SEQ ID NO: 2) encoding full-length of human melatonin 2 receptors (human MT2 receptors) was incorporated into expression vector pCMV-Script (Stratagene, #212220) to give the plasmid that was pCMV-human MT2 receptors expression vector for animal cell expression. CHO-K1 cells (ATCC, #CCL-61) were plated at the concentration of 1.5×10^5 cells/cm^2 in a 6 well plate (ASAHI TECHNO GLASS), and cultured under the conditions of 37° C., 5% CO2 for 24 hr. For gene transfection, solution obtained by blending pCMV-human MT2 receptors expression vector (1.9 μg), Lipofectamine Transfection Reagent (Invitrogen, #18324-012) (11.3 μL) and Minimum Essential Medium Eagle (MEM) medium (Sigma, M8042) (93.8 μL), and reacting at room temperature for 20 min was added to the cells per one well. The transfected cells were cultured in MEM medium containing 10% FBS (Life Technology) and 300 μg/mL Geneticin (GIBCO, #10131), and the cell line that stably expressed the plasmid gene was selected. By a receptor binding assay using 2-[^125I] Iodomelatonin, CHO-hMT2 cell line showing specific binding of 2-[^125I] Iodomelatonin was selected from the obtained clones.
as §2, §3, §4, §5, §6, §7, §8
The assay buffer (80 μL) of the above-mentioned (4) was added to each well of a 96-well plate (type 3363, Corning). […]

T1 sequence (P48039 whole entry): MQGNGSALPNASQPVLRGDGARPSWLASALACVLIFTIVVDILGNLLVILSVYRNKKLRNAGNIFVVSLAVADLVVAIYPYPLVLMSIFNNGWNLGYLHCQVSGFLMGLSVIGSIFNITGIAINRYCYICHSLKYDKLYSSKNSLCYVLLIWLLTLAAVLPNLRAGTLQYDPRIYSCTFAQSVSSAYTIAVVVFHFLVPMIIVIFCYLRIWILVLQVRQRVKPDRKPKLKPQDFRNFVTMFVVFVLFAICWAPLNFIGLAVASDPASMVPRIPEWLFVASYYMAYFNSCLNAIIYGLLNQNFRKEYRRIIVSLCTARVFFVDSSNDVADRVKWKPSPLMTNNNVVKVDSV

`CCC(=O)NCC1CC1c1cccc2nscc12` (stereo not drawn) [Example 63, N-{[2-(2,1-benzisothiazol-4-yl)cyclopropyl]methyl}propanamide]: the melting point (commonly the temperature of the solid-liquid transition) was in the range of 84 to 86 °C. The IC50 (in general, the midpoint of a concentration-inhibition curve) in data set [1] is no more than 100 nM. Moreover, the half-inhibitory concentration (IC50) in data set [2] was no more than 100 nM.

Compound `CC(=O)NCC1CC1c1c(C)ccc2nn(C)cc12` (stereo not drawn) [Example 31, N-{[2-(2,5-dimethyl-2H-indazol-4-yl)cyclopropyl]methyl}acetamide] gave a melting point of 139 to 140 °C. Besides, the IC50 in data set [1] was no more than 100 nM. For the same compound, the IC50 in data set [2] is no more than 100 nM.

`CCC(=O)NC[C@@H]1C[C@H]1c1cccc2nn(C)cc12` [Example 13, N-{[(1R,2R)-2-(2-methyl-2H-indazol-4-yl)cyclopropyl]methyl}propanamide]: the melting point was 78 to 80 °C. In addition, the IC50 in data set [1] is no more than 100 nM. Besides, in data set [2], the half-inhibitory concentration (IC50) was no more than 100 nM.

Compound `CC(=O)NC[C@@H]1C[C@H]1c1cccc2nn(C)cc12` [Example 11, N-{[(1R,2R)-2-(2-methyl-2H-indazol-4-yl)cyclopropyl]methyl}acetamide] came in with a melting point of 145 to 147 °C. For the same compound, the IC50 in data set [1] is no more than 100 nM. Also, in data set [2], the concentration for half-maximal inhibition (IC50) is no more than 100 nM.

Consider `CC(=O)NCC1CC1c1cccc2nscc12` (stereo not drawn) [Example 62, N-{[2-(2,1-benzisothiazol-4-yl)cyclopropyl]methyl}acetamide], for which the melting point was in the range of 96 to 97 °C. For the same compound, the concentration for half-maximal inhibition (IC50) in data set [1] is no more than 100 nM. In data set [2], the IC50 is no more than 100 nM.

`CCCC(=O)NC[C@@H]1C[C@H]1c1cccn2nc(C)cc12` (relative stereo) [Example 45, trans-N-{[2-(2-methylpyrazolo[1,5-a]pyridin-4-yl)cyclopropyl]methyl}butanamide] registered a melting point of 82 to 84 °C. For the same compound, the IC50 in data set [1] was no more than 100 nM. For the same compound, the IC50 in data set [2] was no more than 100 nM.

`CC(=O)NC[C@@H]1C[C@H]1c1cccc2nn(C)cc12` (relative stereo) [Example 1, trans-N-{[2-(2-methyl-2H-indazol-4-yl)cyclopropyl]methyl}acetamide] yielded a melting point of 153 to 154 °C. Besides, the half-inhibitory concentration (IC50) in data set [1] was no more than 100 nM. Moreover, in data set [2], the IC50 is no more than 100 nM.

`Cc1cc2c([C@@H]3C[C@H]3CNC(=O)C(F)(F)F)cccn2n1` (relative stereo) [Example 46, trans-2,2,2-trifluoro-N-{[2-(2-methylpyrazolo[1,5-a]pyridin-4-yl)cyclopropyl]methyl}acetamide]: the melting point is 136 to 138 °C. Moreover, the IC50 in data set [1] is no more than 100 nM. Further, the 50% inhibitory concentration (IC50) in data set [2] was no more than 100 nM.

On to `CC(=O)NCC1CC1c1c(C2CC2)ccc2nn(C)cc12` (stereo not drawn) [Example 33, N-{[2-(5-cyclopropyl-2-methyl-2H-indazol-4-yl)cyclopropyl]methyl}acetamide], for which the melting point lay in the range of 102 to 103 °C. In addition, the IC50 in data set [1] was no more than 100 nM. In addition, the IC50 in data set [2] was no more than 100 nM.

Compound `Cc1cc2c([C@@H]3C[C@H]3CNC(=O)C3CC3)cccn2n1` [Example 49, N-{[(1R,2R)-2-(2-methylpyrazolo[1,5-a]pyridin-4-yl)cyclopropyl]methyl}cyclopropanecarboxamide] registered a melting point of 127 to 129 °C. Besides, the IC50 in data set [1] is no more than 100 nM. Besides, the IC50 in data set [2] was no more than 100 nM.

Compound `CC(=O)NCC1CC1c1cccc2nc(C)nn12` (stereo not drawn) [Example 56, N-{[2-(2-methyl[1,2,4]triazolo[1,5-a]pyridin-5-yl)cyclopropyl]methyl}acetamide] showed a melting point of 124 to 126 °C. Besides, the IC50 in data set [1] is no more than 100 nM. For the same compound, the IC50 in data set [2] is no more than 100 nM.

`CC(=O)NCC1CC1c1cccc2nc(C)cn12` (stereo not drawn) [Example 52, N-{[2-(2-methylimidazo[1,2-a]pyridin-5-yl)cyclopropyl]methyl}acetamide] came in with a melting point of 170 to 171 °C. Besides, the IC50 in data set [1] is no more than 100 nM. Moreover, the IC50 in data set [2] was no more than 100 nM.

The compound `CCC(=O)NCC1CC1c1c(Cl)ccc2nn(C)cc12` (stereo not drawn) [Example 28, N-{[2-(5-chloro-2-methyl-2H-indazol-4-yl)cyclopropyl]methyl}propanamide] yielded a melting point of 152 to 153 °C. For the same compound, in data set [1], the IC50 is no more than 100 nM. Also, the concentration for half-maximal inhibition (IC50) in data set [2] is no more than 100 nM.

Regarding `COc1ccc2nn(C)cc2c1C1CC1CNC(C)=O` (stereo not drawn) [Example 37, N-{[2-(5-methoxy-2-methyl-2H-indazol-4-yl)cyclopropyl]methyl}acetamide], the melting point was in the range of 104 to 105 °C. The IC50 in data set [1] was no more than 100 nM. In addition, in data set [2], the half-inhibitory concentration (IC50) was no more than 100 nM.

As for `CC(=O)NC[C@H]1C[C@@H]1c1cccc2nn(C)cc12` [Example 10, N-{[(1S,2S)-2-(2-methyl-2H-indazol-4-yl)cyclopropyl]methyl}acetamide], the melting point fell in the range of 145 to 147 °C. In addition, the IC50 in data set [1] was no more than 100 nM. Further, in data set [2], the IC50 is no more than 100 nM.

Regarding `CCC(=O)NCC1CC1c1c(Br)ccc2nn(C)cc12` (stereo not drawn) [Example 30, N-{[2-(5-bromo-2-methyl-2H-indazol-4-yl)cyclopropyl]methyl}propanamide], the melting point fell in the range of 119 to 121 °C. The IC50 in data set [1] was no more than 100 nM. Also, the IC50 in data set [2] was no more than 100 nM.

On to `CC(=O)NC[C@@H]1C[C@H]1c1cccn2nc(C)cc12` [Example 44, N-{[(1R,2R)-2-(2-methylpyrazolo[1,5-a]pyridin-4-yl)cyclopropyl]methyl}acetamide], for which the melting point lay in the range of 100 to 101 °C. Besides, the IC50 in data set [1] is no more than 100 nM. Besides, the half-maximal inhibitory concentration (IC50) in data set [2] was no more than 100 nM.
